Measured values reported in patent publication US11427567B2, “Imidazolyl pyrimidinylamine compounds as CDK2 inhibitors” (Incyte Corporation, priority 2019, dated 2022).

Tests used:
[1] = test system: Rb phosphorylation at S780 in CCNE1-non-amplified cell lines (COV504 and OV56); experiment: Western blot of Rb phosphorylation at S780, CCNE1-non-amplified cell lines; format: cell-based, human; conditions: various doses, 1 or 15 hours
Method: (§1) The effect of CDK4/6-inhibition on Rb phosphorylation at 5780 in CCNE1-amplified versus CCNE1-non-amplified cell lines was evaluated. […] One or 15 hours after treatment, the cells were harvested and total protein was extracted and analyzed by western blot (FIG. 8).
(§2) Whole cell extracts were prepared using RIPA buffer (Thermo Scientific, 89900) with a Halt Protease and Phosphatase Inhibitor Cocktail (Thermo Scientific, 78440). Protein concentration was quantified with a BCA Protein Assay Kit (Thermo Scientific, 23225) and 40 μg of protein lysates were loaded for SDS-PAGE using precast gradient gels (Bio-Rad, Hercules, No. 456-1094). Samples were diluted in 5× Laemmli buffer (300 mM Tris-HCl pH 6.8, 10% SDS (w/v), 5% 2-mercaptoethanol, 25% glycerol (v/v), 0.1% bromophenol blue w/v) and boiled for 5 minutes. […] of proteins were separated by 8-15% SDS-PAGE and transferred onto polyvinylidene fluoride (PVDF) membranes. Unspecific binding sites on the PVDF membranes were blocked with 5% non-fat milk in TBST (20 mM Tris-HCl, pH 7.6, 137 mM NaCl, 1% Tween-20). […] Images were captured by Luminescence/Fluorescence Imaging System Odyssey CLx Imager (LI-COR).

[2] = test system: CCNE1-amplified cell lines (COV318, OVCAR3); experiment: Cell cycle analysis by FACS upon CDK4/6 inhibition, CCNE1-amplified cell lines; format: cell-based, human
Method: (§3) The effect of CDK4/6-inhibition in CCNE1-amplified versus CCNE1-non-amplified cell lines was evaluated.
(§4) A similar experiment was performed in a larger set of CCNE1-amplified cell lines (COV318 and OVCAR3) and CCNE1-non-amplified cell lines (COV504, OV56, and Igrov1) (FIG. 6).
(§5) The complete growth medium was supplemented with 10% FBS, 0.1 mM non-essential amino acids, 2 mM L-glutamine, 100 units/mL penicillin G and 100 μg/mL streptomycin in 37° C. humidified incubator and an atmosphere of 5% CO2 in air. Fu-OV1 line was purchased from Leibniz-Institute DSMZ—German Collection of Microorganisms and Cell Cultures; MKN1 was purchased from Japanese Cancer Research Resources Bank; and the rest of cell lines were purchased from American Type Culture Collection.
(§6) Bulk DNA was stained with DAPI. Compound-treated and DMSO treated control cells were acquired with CytoFlex (Beckman Coulter) and were analyzed using the FlowJo software.

[3] = test system: CCNE1-non-amplified cell lines (COV504, OV56, Igrov1); experiment: Cell cycle analysis by FACS upon CDK4/6 inhibition, CCNE1-non-amplified cell lines; format: cell-based, human
Method: as §3, §4, §5, §6

[4] = test system: Rb phosphorylation at S780 in CCNE1-amplified cell lines (OVCAR3 and COV318); experiment: Western blot of Rb phosphorylation at S780, CCNE1-amplified cell lines; format: cell-based, human; conditions: various doses, 1 or 15 hours
Method: as §1, §2

[5] = test system: Rb phosphorylated on serine 780 in CCNE1 amplified COV318 cells; experiment: CDK2 pRb (S780) HTRF cellular assay; format: cell-based; conditions: Homo sapiens, overnight treatment, read-out: IC50 in p-RB S780 HTRF cellular assay
Method: CDK2 pRb (5780) HTRF cellular assay enables the quantitative detection of Rb phosphorylated on […] in CCNE1 amplified COV318 cells. The assay comprised two antibodies: Europium cryptate labeled anti-Phospho-Rb […] antibody (donor) and d2 labeled anti-Rb antibody (acceptor). In brief, COV318 cells were seeded into the wells of 96-well plate at a density of 25,000 per well with 9-point, 3-fold serial diluted compounds and cultured overnight at 37 degree with 5% CO2. The final concentrations of compounds start from 3 μM. […] After 2h of incubation at room temperature, HTRF signals were measured on the PHERAstar microplate reader (BMG Labtech), using 340 nm as excitation wavelength, a 620 nm filter for the Europium donor fluorescence, and a 665-nm filter for the acceptor fluorescence detection. HTRF signals were calculated as the HTRF ratio (ratio of fluorescence measured at 665 nm and 620 nm)×10000.

[6] = test system: CCNE1 amplified COV318 cells; experiment: Cell cycle analysis by FACS after p16 knockdown and CDK2 inhibitor treatment; format: cell-based, human; conditions: 100 nM, 16 hours
Method: To confirm the role of p16 in CDK2-sensitivity of CCNE-amplified cells, COV318 cells were treated with control or p16-specific siRNA.
Human cyclin E1 (CCNE1) amplified ovarian cell lines OVCAR3, COV318, Fu-OV1, endometrial cell line KLE, gastric cell lines MKN1, AGS, NCIN87, and CCNE1 non-amplified ovarian cell lines COV504, OV56, Igrov1 were cultured in RPMI 1640 medium. The complete growth medium was supplemented with 10% FBS, 0.1 mM non-essential amino acids, 2 mM L-glutamine, 100 units/mL penicillin G and 100 μg/mL streptomycin in 37° C. humidified incubator and an atmosphere of 5% CO2 in air. Fu-OV1 line was purchased from Leibniz-Institute DSMZ—German Collection of Microorganisms and Cell Cultures; MKN1 was purchased from Japanese Cancer Research Resources Bank; and the rest of cell lines were purchased from American Type Culture Collection. For transfection, cells were seeded into 6-well for 24 hours and transiently transfected by Lipofectamine 2000 Reagent (Thermo Fisher, 11668027). […]
Bulk DNA was stained with DAPI. Compound-treated and DMSO treated control cells were acquired with CytoFlex (Beckman Coulter) and were analyzed using the FlowJo software. […]

CDK2/Cyclin E1 = CDK2/Cyclin E1 (Homo sapiens (Human), UniProt P24941); experiment: CDK2/Cyclin E1 HTRF enzyme activity assay (Example A); format: biochemical; conditions: 1 mM ATP
Method: Assays were conducted in white 384-well polystyrene plates in a final reaction volume of 8 μL. […] HTRF signals were read after 1 hour at room temperature on a PHERAstar FS plate reader (BMG Labtech). Data was analyzed with IDBS XLFit and GraphPad Prism 5.0 software using a three or four parameter dose response curve to determine IC50 for each compound.

Structure (SMILES): CC(=O)c1c(C)c2cnc(Nc3ccc(N4CCNCC4)cn3)nc2n(C2CCCC2)c1=O [Palbociclib]
- Rb phosphorylation at S780 (western blot) [1]: blocked Rb phosphorylation
- Inhibition of proliferation (cell cycle analysis by FACS) ([2]; CCNE1-amplified cells (OVCAR3), increasing concentrations, 16 hours): not in CCNE1-amplified cells
- Percentage of cells at the S phase as compared to DMSO ([2]; COV318 and OVCAR3, 16 hours after treatment): not significantly different
- Inhibition of proliferation (cell cycle analysis by FACS) ([3]; CCNE1-non-amplified cells (COV504), increasing concentrations, 16 hours): dose-dependent inhibition of the proliferation
- Percentage of cells at the S phase as compared to DMSO ([3]; COV504, OV56, Igrov1, 16 hours after treatment): decreased in CCNE1-non-amplified cell lines in a dose-dependent fashion
- Rb phosphorylation at S780 (western blot) [4]: not in CCNE1-amplified cell lines
- IC50 [5]: > 3000 nM

Structure (SMILES): C[C@@]1(O)CCC[C@H]1n1c(=O)ccc2cnc(NC3CCN(S(C)(=O)=O)CC3)nc21 [Compound A, 8-((1R,2R)-2-hydroxy-2-methylcyclopentyl)-2-((1-(methylsulfonyl)piperidin-4-yl)amino)pyrido[2,3-d]pyrimidin-7(8H)-one]
- IC50 [5]: 37 nM
- Percentage of S phase cells ([6]; control siRNA-treated COV318 cells): significantly decreased
- Percentage of S phase cells as compared to DMSO control ([6]; p16 knocked down COV318 cells): not significantly decreased

Structure (SMILES): O=S(=O)(NC1CC1)N1CCC(Nc2ncc(C(F)(F)F)c(-c3cn(-c4ccc(CN5CCC5)cc4Cl)cn3)n2)CC1 [Example 230, 4-((4-(1-(4-(Azetidin-1-ylmethyl)-2-chlorophenyl)-1H-imidazol-4-yl)-5-(trifluoromethyl)pyrimidin-2-yl)amino)-N-cyclopropylpiperidine-1-sulfonamide]
- IC50 (CDK2/Cyclin E1): ≤ 50 nM

Structure (SMILES): Cn1c(Cl)nc(-c2nc(NC3CCN(S(C)(=O)=O)CC3)ncc2C(F)(F)F)c1Cl [Example 12, 4-(2,5-Dichloro-1-methyl-1H-imidazol-4-yl)-N-(1-(methylsulfonyl)piperidin-4-yl)-5-(trifluoromethyl)pyrimidin-2-amine]
- IC50 (CDK2/Cyclin E1): ≤ 50 nM

Structure (SMILES): CS(=O)(=O)N1CCC(Nc2ncc(C(F)(F)F)c(-c3cn(CC(F)F)cn3)n2)CC1 [Example 21, 4-(1-(2,2-Difluoroethyl)-1H-imidazol-4-yl)-N-(1-(methylsulfonyl)piperidin-4-yl)-5-(trifluoromethyl)pyrimidin-2-amine]
- IC50 (CDK2/Cyclin E1): ≤ 50 nM

Structure (SMILES): CCNC(C)c1ccc(-n2cnc(-c3nc(NC4CCN(S(C)(=O)=O)CC4)ncc3C(F)(F)F)c2)c(Cl)c1 (centres unmarked) [Example 273, 4-(1-(2-Chloro-4-(1-(ethylamino)ethyl)phenyl)-1H-imidazol-4-yl)-N-(1-(methylsulfonyl)piperidin-4-yl)-5-(trifluoromethyl)pyrimidin-2-amine]
- IC50 (CDK2/Cyclin E1): ≤ 50 nM

Structure (SMILES): COc1ccc(-n2cnc(-c3nc(N[C@H]4CCN(S(C)(=O)=O)C[C@H]4F)ncc3C(F)(F)F)c2)c(C#N)n1 [Example 52, 3-(4-(2-(((3R,4S)-3-Fluoro-1-(methylsulfonyl)piperidin-4-yl)amino)-5-(trifluoromethyl)pyrimidin-4-yl)-1H-imidazol-1-yl)-6-methoxypicolinonitrile]
- IC50 (CDK2/Cyclin E1): ≤ 50 nM

Structure (SMILES): C[C@H]1CN(c2ccc(-n3cnc(-c4nc(NC5CCN(S(C)(=O)=O)CC5)ncc4C(F)(F)F)c3)c(Cl)c2)CCN1 [Example 140, (S)-4-(1-(2-Chloro-4-(3-methyl-piperazin-1-yl)-phenyl)-1H-imidazol-4-yl)-N-(1-(methyl-sulfonyl)piperidin-4-yl)-5-(trifluoro-methyl)pyrimidin-2-amine]
- IC50 (CDK2/Cyclin E1): ≤ 50 nM

Structure (SMILES): CS(=O)(=O)N1CCC(Nc2ncc(C(F)(F)F)c(-c3cn(-c4cccc(C#N)c4Cl)cn3)n2)CC1 [Example 58, 2-Chloro-3-(4-(2-((1-(methylsulfonyl)piperidin-4-yl)amino)-5-(trifluoromethyl)pyrimidin-4-yl)-1H-imidazol-1-yl)benzonitrile]
- IC50 (CDK2/Cyclin E1): ≤ 50 nM
